# Test results: paper PMC9861390, “Synthesis and Molecular Docking of Some Novel 3-Thiazolyl-Coumarins as Inhibitors of VEGFR-2 Kinase” (Molecules, 2023)
# What was measured:
# [1] = system: human breast cancer (MCF-7) cell line; assay: MTT cytotoxicity assay on MCF-7; type: cell-based; conditions: MCF7, 24 h incubation, mean and standard error of three tests
# Experimental: (§1) Afterward, the determination of the tested sample concentrations that were sufficient to kill 50 percent of the cell population (IC50) was done by using the cytotoxicity results in plotting a dose-response curve.
# (§2) In addition, cytotoxic activities were reported as the average IC50 from three separate tests.
# The cytotoxicity of the investigated substances was assessed and determined by MTT assay, and the detailed cytotoxicity assay is included in the Supplementary File S1 [57, 58].
# 1H-NMR spectra of compound 12c-1
# (§3) The tested human breast cancer (MCF -7) cell lines and normal cell line LLC - Mk2 were obtained from the American Type Culture Collection (ATCC, Rockville, MD). The cells were grown on RPMI -1640 medium supplemented with 10% inactivated fetal calf serum and 50µg/mL gentamycin (Lonza, Belgium). The cells were maintained at 37 °C in a humidified atmosphere with 5% CO 2 and were subcultured two to three times a week during the period of experiment .
# (§4) For antitumor assays, the tumor cell lines were suspended in medium at cell density of 5x10^4 cells/well in Corning® 96-well tissue culture plates and then incubated for 24 hours. The tested compounds were then added into 96-well plates (six replicates) to achieve eight concentrations for each compound. Six vehicle controls with media or 0.5 % DMSO were run for each 96 well plate as a control. After incubating for 24 h, the numbers of viable cells were determined by the MTT assay. Briefly, the media was removed from the 96-well plate and replaced with 100 µl of fresh culture RPMI 1640 medium without phenol red then 10
# (§5) (1 picture or pasted object on this page, not shown here) […]
# (§6) µL of the 12 mM MTT stock solution {5 mg of 3-(4,5-dimethylthiazol-2-yl)-2,5-diphenyltetrazolium bromide purchased from Sigma-Aldrich (St. Louis, MO) in 1 mL of Phosphate buffered saline} to each well including the untreated controls. The 96 well plates were then incubated at 37°C and 5% CO 2 for 4 hours.
# (§7) An 85 µl aliquot of the media was removed from the wells, and 50 µL of DMSO was added to each well and mixed thoroughly with the pipette and incubated at 37 °C for 10 min. Then, the optical density was measured at 590 nm with the microplate reader (SunRise, TECAN, Inc, USA) to dete rmine the number of viable cells and the percentage of viability was calculated as [(ODt/ODc)]x100% where ODt is the mean optical density of wells treated with the tested sample and ODc is the mean optical density of untreated cells. The relation between surviving cells and drug concentration is plotted to get the survival curve of each tumor cell line after treatment with the specified compound. The 50% inhibitory concentration (IC 50), the concentration required to cause toxic effects in 50% of intact cells, was estimated from graphic plots of the dose response curve for each conc. using GraphPad Prism software (San Diego, CA. USA)[ 2].
# 1. Mosmann, T. Rapid colorimetric assay for cellular growth and survival: application to proliferation and cytotoxicity assays. J. Immunol. Methods 1983, 65, 55-63.
# [2] = MTT cytotoxicity assay on normal cell line LLC-Mk2; type: cell-based; conditions: rhesus monkey, LLC-Mk2 kidney epithelial normal cells, mean and standard error
# Experimental: as §1, §2
# The cytotoxicity of the investigated substances was assessed and determined by MTT assay, and the detailed cytotoxicity assay is included in the Supplementary File S1 [57, 58]. […]
# as §3, §4, §5, §6
# as §7, with “2]. […]” for “2].”
# VEGFR-2 = system: VEGFR-2; parameters: method as in PMID 28942113, PMID 21078410, PMID 26916914, PMID 27367493, PMID 35807236; conditions: in Figure 2; cited from earlier work
compound,measurement,setting,value
"CC(=NNC(N)=S)c1cc2cc(N=Nc3ccccc3)ccc2oc1=O [Compound 3, 2-(1-(2-oxo-6-(phenyldiazenyl)-2H-chromen-3-yl)ethylidene)hydrazine-1-carbothioamide]",melting point,,177 to 179 °C
C/C(=N\Nc1nc(C)c(/N=N/c2ccccc2)s1)c1cc2cc(/N=N/c3ccccc3)ccc2oc1=O [Compound 6a],melting point,,201 to 203 °C
CC(=NNc1nc(C)c(N=Nc2ccc(C)cc2)s1)c1cc2cc(N=Nc3ccccc3)ccc2oc1=O [Compound 6b],IC50,[1],11.2 ± 0.8 µM
same,CC50 at 24 h,[2],152 ± 9.3 µM
COc1ccc(/N=N/c2sc(N/N=C(\C)c3cc4cc(/N=N/c5ccccc5)ccc4oc3=O)nc2C)cc1 [Compound 6c],IC50,[1],14.1 ± 0.63 µM
same,CC50 at 24 h,[2],141 ± 5.15 µM
same,melting point,,179 to 181 °C
CC(=NNc1nc(C)c(N=Nc2ccc(Cl)cc2)s1)c1cc2cc(N=Nc3ccccc3)ccc2oc1=O [Compound 6d],IC50,[1],10.5 ± 0.71 µM
same,CC50 at 24 h,[2],132 ± 8.26 µM
CC(=NNc1nc(C)c(N=Nc2ccc(Cl)cc2Cl)s1)c1cc2cc(N=Nc3ccccc3)ccc2oc1=O [Compound 6e],melting point,,216 to 218 °C
CC(=NNC1=NC(=O)C(=NNc2ccc(C)cc2)S1)c1cc2cc(N=Nc3ccccc3)ccc2oc1=O [Compound 10a],IC50,[1],28.6 ± 0.64 µM
same,CC50 at 24 h,[2],140 ± 10.3 µM
CC(=NNC1=NC(=O)C(=NNc2ccc(Cl)cc2)S1)c1cc2cc(N=Nc3ccccc3)ccc2oc1=O [Compound 10b],melting point,,190 to 192 °C
CC(=NNC1=NC(=O)C(=NNc2ccc([N+](=O)[O-])cc2)S1)c1cc2cc(N=Nc3ccccc3)ccc2oc1=O [Compound 10c],IC50,[1],15.7 ± 0.67 µM
same,CC50 at 24 h,[2],163 ± 9.12 µM
CC(=NNc1nc(-c2ccccc2)cs1)c1cc2cc(N=Nc3ccccc3)ccc2oc1=O [Compound 12a],melting point,,217 to 219 °C
COc1ccc(-c2csc(NN=C(C)c3cc4cc(N=Nc5ccccc5)ccc4oc3=O)n2)cc1 [Compound 12b],melting point,,205 to 207 °C
C/C(=N\Nc1nc(-c2ccc([N+](=O)[O-])cc2)cs1)c1cc2cc(/N=N/c3ccccc3)ccc2oc1=O [Compound 12c],melting point,,231 to 233 °C
C/C(=N\c1ccc(F)cc1)c1c(O)c2ccccc2oc1=O [III],VEGFR-2 inhibition,VEGFR-2,94%
CO/C=N\C1=C(C#N)C(c2ccc(F)cc2)c2c(c3ccccc3oc2=O)C1 (stereo not drawn) [IV],VEGFR-2 inhibition,VEGFR-2,94%
"CNC(=O)c1cc(Oc2ccc(NC(=O)Nc3ccc(Cl)c(C(F)(F)F)c3)cc2)ccn1 [Sorafenib, reference compound]",IC50,[1],5.1 ± 0.49 µM
same,CC50 at 24 h,[2],135 ± 4.08 µM
O=c1oc2cc(O)ccc2c(Nc2ccc(OCCN3CCCCC3)cc2)c1-c1ccc(F)cc1 [X = NH],VEGFR-2 inhibition,VEGFR-2,88.42%
O=c1oc2cc(O)ccc2c(Oc2ccc(OCCN3CCCCC3)cc2)c1-c1ccc(F)cc1 [X = O],VEGFR-2 inhibition,VEGFR-2,82.92%
